Measured values published in US9180118B2, “Thiadiazolidinone derivatives” (University of Rochester, priority 2006, dated 2015).
Read-outs that look alike come from different tables or passages of the source.

Experiments:
[1] = tested on: Renal cancer, 7 cell lines; experiment: NCI-60 screen; type: cell-based; conditions: Homo sapiens
Excerpt: (§1) In contrast the cell viability for normal specimens was 79.5% (n=13).

Melanoma, 8 cell lines = experiment: NCI-60 screen; type: cell-based; conditions: Homo sapiens
Excerpt: as §1

HL-60 = experiment: NCI-60 screen; type: cell-based; conditions: Homo sapiens
Excerpt: as §1

[2] = tested on: Prostate cancer, 2 cell lines; experiment: NCI-60 screen; type: cell-based; conditions: Homo sapiens
Excerpt: as §1

PRKCB2 (PKC beta II) = PRKCB2 (PKC beta II) (Homo sapiens, UniProt P05771); experiment: Kinase assay; type: biochemical
Method: (§2) Kinase Assays: Single point and titration assays are performed using protocols (or essentially using protocols) know in the art for kinase activity profiling against a battery of kinase targets, including, for example, those specifically delineated herein. Such assays include, for example, those available from commercial sources, contract research laboratories, and the like.

KIT = KIT (Homo sapiens, UniProt P10721); experiment: Kinase assay; type: biochemical
Method: as §2

CSNK1G2 (CK1 gamma 2) = CSNK1G2 (CK1 gamma 2) (Homo sapiens, UniProt P78368); experiment: Kinase assay; type: biochemical
Method: as §2

ABL1 = ABL1 (Homo sapiens, UniProt P00519); experiment: Kinase assay; type: biochemical
Method: as §2

PRKCG (PKC gamma) = PRKCG (PKC gamma) (Homo sapiens, UniProt P05129); experiment: Kinase assay; type: biochemical
Method: as §2

AKT1 (PKB alpha) = AKT1 (PKB alpha) (Homo sapiens, UniProt P31749); experiment: Kinase assay; type: biochemical
Method: as §2

PRKCH (PKC eta) = PRKCH (PKC eta) (Homo sapiens, UniProt P24723); experiment: Kinase assay; type: biochemical
Method: as §2

PIM1 = PIM1 (Homo sapiens, UniProt P11309); experiment: Kinase assay; type: biochemical
Method: as §2

PRKCE (PKC epsilon) = PRKCE (PKC epsilon) (Homo sapiens, UniProt Q02156); experiment: Kinase assay; type: biochemical
Method: as §2

SRC = SRC (Homo sapiens, UniProt P12931); experiment: Kinase assay; type: biochemical
Method: as §2

PHKG2 = PHKG2 (Homo sapiens, UniProt P15735); experiment: Kinase assay; type: biochemical
Method: as §2

Jak2 = Jak2 (Homo sapiens, UniProt O60674); experiment: Kinase assay; type: biochemical; conditions: TDZD-8 20 μM
Method: as §2

PRKCA (PKC alpha) = PRKCA (PKC alpha) (Homo sapiens, UniProt P17252); experiment: Kinase assay; type: biochemical
Method: as §2

STK6 (Aurora A) = STK6 (Aurora A) (Homo sapiens, UniProt O14965); experiment: Kinase assay; type: biochemical
Method: as §2

IGF1R = IGF1R (Homo sapiens, UniProt P08069); experiment: Kinase assay; type: biochemical
Method: as §2

IRAK4 = IRAK4 (Homo sapiens, UniProt Q9NWZ3); experiment: Kinase assay; type: biochemical
Method: as §2

EPHA2 = EPHA2 (Homo sapiens, UniProt P29317); experiment: Kinase assay; type: biochemical
Method: as §2

MAPK3 (ERK1) = MAPK3 (ERK1) (Homo sapiens, UniProt P27361); experiment: Kinase assay; type: biochemical
Method: as §2

PRKACA (PKA) = PRKACA (PKA) (Homo sapiens, UniProt P17612); experiment: Kinase assay; type: biochemical
Method: as §2

SYK = SYK (Homo sapiens, UniProt P43405); experiment: Kinase assay; type: biochemical
Method: as §2

MET (cMet) = MET (cMet) (Homo sapiens, UniProt P08581); experiment: Kinase assay; type: biochemical
Method: as §2

JAK3 = JAK3 (Homo sapiens, UniProt P52333); experiment: Kinase assay; type: biochemical
Method: as §2

ROCK1 = ROCK1 (Homo sapiens, UniProt Q13464); experiment: Kinase assay; type: biochemical
Method: as §2

PDGFRB (PDGFR beta) = PDGFRB (PDGFR beta) (Homo sapiens, UniProt P09619); experiment: Kinase assay; type: biochemical
Method: as §2

ERBB2 (HER2) = ERBB2 (HER2) (Homo sapiens, UniProt P04626); experiment: Kinase assay; type: biochemical
Method: as §2

PRKCQ (PKC theta) = PRKCQ (PKC theta) (Homo sapiens, UniProt Q04759); experiment: Kinase assay; type: biochemical
Method: as §2

TEK (Tie2) = TEK (Tie2) (Homo sapiens, UniProt Q02763); experiment: Kinase assay; type: biochemical
Method: as §2

LCK = LCK (Homo sapiens, UniProt P06239); experiment: Kinase assay; type: biochemical
Method: as §2

MAPK14 (p38 alpha) = MAPK14 (p38 alpha) (Homo sapiens, UniProt Q16539); experiment: Kinase assay; type: biochemical
Method: as §2

DYRK3 = DYRK3 (Homo sapiens, UniProt O43781); experiment: Kinase assay; type: biochemical
Method: as §2

RET = RET (Homo sapiens, UniProt P07949); experiment: Kinase assay; type: biochemical
Method: as §2

PRKCZ (PKC zeta) = PRKCZ (PKC zeta) (Homo sapiens, UniProt Q05513); experiment: Kinase assay; type: biochemical
Method: as §2

FGFR1 = FGFR1 (Homo sapiens, UniProt P11362); experiment: Kinase assay; type: biochemical
Method: as §2

CDK1/cyclin B = CDK1/cyclin B (Homo sapiens, UniProt P06493); experiment: Kinase assay; type: biochemical
Method: as §2

CHEK1 (CHK1) = CHEK1 (CHK1) (Homo sapiens, UniProt O14757); experiment: Kinase assay; type: biochemical
Method: as §2

[3] = read-out: Log10 GI50 (converted)

Chain of SRC (P12931 whole entry, species assumed): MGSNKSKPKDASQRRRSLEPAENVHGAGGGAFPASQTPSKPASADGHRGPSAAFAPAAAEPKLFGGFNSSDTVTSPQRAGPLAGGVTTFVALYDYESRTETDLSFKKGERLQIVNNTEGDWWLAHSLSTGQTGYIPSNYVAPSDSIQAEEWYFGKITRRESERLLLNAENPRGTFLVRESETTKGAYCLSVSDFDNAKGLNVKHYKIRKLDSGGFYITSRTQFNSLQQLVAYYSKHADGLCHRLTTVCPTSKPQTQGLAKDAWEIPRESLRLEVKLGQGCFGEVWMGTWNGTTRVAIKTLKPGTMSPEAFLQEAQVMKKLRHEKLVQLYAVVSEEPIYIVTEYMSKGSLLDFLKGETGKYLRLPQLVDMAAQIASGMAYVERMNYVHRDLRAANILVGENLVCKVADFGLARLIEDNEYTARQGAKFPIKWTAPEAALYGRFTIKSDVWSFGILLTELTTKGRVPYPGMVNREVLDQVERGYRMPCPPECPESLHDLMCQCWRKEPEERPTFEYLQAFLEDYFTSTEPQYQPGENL
Chain of TEK (Tie2) (Q02763 23-1124, species assumed): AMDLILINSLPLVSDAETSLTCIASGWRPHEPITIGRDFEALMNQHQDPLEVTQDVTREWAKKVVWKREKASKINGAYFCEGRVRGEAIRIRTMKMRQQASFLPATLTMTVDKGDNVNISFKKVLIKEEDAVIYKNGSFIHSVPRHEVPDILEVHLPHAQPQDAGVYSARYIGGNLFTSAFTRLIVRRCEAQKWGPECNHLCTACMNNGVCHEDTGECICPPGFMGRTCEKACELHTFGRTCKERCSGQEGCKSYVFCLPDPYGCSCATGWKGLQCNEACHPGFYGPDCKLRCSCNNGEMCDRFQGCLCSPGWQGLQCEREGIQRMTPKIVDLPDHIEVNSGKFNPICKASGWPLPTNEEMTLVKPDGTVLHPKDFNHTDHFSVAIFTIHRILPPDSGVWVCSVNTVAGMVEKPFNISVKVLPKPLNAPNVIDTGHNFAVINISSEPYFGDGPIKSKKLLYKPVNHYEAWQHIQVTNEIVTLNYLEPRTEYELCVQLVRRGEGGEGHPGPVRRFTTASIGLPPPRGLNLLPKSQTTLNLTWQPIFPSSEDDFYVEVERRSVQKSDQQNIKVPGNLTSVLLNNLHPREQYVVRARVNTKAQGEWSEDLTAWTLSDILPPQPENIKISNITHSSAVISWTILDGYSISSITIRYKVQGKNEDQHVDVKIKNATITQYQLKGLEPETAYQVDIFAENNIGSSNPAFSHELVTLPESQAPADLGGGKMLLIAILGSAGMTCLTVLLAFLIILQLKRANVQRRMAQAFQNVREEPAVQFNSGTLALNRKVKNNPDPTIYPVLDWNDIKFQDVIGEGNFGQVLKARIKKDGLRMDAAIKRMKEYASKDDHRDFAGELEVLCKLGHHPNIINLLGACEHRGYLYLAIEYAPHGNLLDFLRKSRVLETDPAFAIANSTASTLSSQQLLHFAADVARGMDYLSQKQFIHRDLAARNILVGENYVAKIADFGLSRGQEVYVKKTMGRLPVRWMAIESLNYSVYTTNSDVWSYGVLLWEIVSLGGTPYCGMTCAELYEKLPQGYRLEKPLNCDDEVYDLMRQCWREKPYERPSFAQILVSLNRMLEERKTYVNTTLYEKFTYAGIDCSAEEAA
Chain of PDGFRB (PDGFR beta) (P09619 33-1106): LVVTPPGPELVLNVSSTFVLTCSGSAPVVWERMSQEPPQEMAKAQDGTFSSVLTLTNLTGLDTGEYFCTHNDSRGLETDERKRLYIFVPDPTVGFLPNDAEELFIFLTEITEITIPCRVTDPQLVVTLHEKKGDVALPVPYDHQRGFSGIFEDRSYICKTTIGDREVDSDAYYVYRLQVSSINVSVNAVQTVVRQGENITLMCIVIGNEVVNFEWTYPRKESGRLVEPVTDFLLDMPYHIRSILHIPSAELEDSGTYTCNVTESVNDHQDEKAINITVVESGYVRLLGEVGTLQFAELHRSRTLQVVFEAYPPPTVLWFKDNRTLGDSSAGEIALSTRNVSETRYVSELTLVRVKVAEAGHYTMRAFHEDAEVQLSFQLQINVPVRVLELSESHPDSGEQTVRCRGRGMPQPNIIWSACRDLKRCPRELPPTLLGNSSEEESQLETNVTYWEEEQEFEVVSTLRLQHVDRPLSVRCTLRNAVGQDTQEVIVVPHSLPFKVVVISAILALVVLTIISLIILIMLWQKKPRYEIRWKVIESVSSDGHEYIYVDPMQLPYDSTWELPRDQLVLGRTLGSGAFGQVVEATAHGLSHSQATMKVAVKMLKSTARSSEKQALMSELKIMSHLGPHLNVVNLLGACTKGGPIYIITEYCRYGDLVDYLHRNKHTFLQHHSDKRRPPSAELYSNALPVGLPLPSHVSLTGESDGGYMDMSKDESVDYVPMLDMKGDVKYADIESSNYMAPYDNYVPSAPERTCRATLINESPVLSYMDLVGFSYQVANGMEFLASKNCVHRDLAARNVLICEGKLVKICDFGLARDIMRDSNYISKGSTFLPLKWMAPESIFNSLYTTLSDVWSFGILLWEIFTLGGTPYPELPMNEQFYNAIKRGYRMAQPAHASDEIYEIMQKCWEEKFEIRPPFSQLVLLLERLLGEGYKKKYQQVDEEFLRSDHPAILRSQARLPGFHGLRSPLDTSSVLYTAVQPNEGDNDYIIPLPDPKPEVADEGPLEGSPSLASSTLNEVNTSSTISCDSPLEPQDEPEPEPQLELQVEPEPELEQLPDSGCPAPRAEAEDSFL
Chain of KIT (P10721 26-976): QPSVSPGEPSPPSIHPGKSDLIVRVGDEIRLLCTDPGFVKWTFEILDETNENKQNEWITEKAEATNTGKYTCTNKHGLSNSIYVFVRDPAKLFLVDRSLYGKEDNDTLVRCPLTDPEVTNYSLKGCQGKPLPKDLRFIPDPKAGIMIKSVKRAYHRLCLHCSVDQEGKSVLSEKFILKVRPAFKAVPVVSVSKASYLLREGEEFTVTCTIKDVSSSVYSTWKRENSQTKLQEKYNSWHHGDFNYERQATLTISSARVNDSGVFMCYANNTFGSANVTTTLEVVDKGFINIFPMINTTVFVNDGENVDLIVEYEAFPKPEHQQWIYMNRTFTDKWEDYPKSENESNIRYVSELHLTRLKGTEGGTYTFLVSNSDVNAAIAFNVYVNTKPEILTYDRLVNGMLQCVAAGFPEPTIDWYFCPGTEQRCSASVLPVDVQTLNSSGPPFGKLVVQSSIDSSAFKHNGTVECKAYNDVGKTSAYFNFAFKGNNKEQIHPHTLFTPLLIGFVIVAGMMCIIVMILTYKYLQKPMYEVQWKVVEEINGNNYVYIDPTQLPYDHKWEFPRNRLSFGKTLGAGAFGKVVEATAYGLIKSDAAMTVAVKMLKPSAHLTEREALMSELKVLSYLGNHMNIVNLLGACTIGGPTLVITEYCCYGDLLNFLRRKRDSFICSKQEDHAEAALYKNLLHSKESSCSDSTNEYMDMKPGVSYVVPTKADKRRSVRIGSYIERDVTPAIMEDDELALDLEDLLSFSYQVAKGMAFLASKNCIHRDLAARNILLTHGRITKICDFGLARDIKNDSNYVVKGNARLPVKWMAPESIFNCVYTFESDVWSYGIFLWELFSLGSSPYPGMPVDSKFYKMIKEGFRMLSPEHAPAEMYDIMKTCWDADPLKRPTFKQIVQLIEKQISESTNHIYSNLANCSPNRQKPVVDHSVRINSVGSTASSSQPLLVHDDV
Chain of PRKCQ (PKC theta) (Q04759 whole entry): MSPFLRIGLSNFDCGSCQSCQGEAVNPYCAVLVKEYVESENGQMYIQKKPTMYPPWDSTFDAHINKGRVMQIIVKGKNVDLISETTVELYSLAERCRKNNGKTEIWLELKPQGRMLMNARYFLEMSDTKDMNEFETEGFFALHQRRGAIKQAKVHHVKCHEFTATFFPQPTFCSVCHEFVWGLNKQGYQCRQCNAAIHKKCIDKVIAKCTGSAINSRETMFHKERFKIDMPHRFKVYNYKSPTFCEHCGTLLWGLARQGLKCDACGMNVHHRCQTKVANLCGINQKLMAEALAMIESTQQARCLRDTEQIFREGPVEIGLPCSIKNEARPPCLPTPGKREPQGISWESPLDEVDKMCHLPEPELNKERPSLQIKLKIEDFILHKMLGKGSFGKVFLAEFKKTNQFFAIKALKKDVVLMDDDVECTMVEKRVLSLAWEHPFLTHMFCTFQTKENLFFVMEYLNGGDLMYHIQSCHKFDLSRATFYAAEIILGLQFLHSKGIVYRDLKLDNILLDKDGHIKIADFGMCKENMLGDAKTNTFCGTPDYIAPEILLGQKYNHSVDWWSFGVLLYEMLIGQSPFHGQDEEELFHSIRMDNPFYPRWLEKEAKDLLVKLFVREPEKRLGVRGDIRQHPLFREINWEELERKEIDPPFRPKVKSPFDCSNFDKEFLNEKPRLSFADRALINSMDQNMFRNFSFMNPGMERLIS

For `Cn1sc(=O)n(Cc2ccccc2)c1=O` [TDZD-8, 4-benzyl-2-methyl-1,2,4-thiadiazolidine-3,5-dione], the GI50 ([1]; read-out: GI50) was > 100 µM, the GI50 [1, 3] was > 100 µM and the GI50 (Melanoma, 8 cell lines; read-out: GI50) was > 100 µM. The GI50 (Melanoma, 8 cell lines; [3]) was > 100 µM, the GI50 (HL-60; read-out: GI50) was 0.2 µM and the GI50 (HL-60; [3]) was 0.234 µM. The GI50 ([2]; read-out: GI50) was > 100 µM, the GI50 [2, 3] was > 100 µM and the inhibition at 20 µM (PRKCB2 (PKC beta II)) was 99%. The inhibition at 20 µM (KIT) was -6%, the “% Inhibition mean” value (KIT; TDZD-8 20 μM) was “little to no inhibition” and the inhibition at 20 µM (CSNK1G2 (CK1 gamma 2)) was 22%. The inhibition at 20 µM (ABL1) was 70%, the inhibition at 20 µM (PRKCG (PKC gamma)) was 103% and the inhibition at 20 µM (AKT1 (PKB alpha)) was 102%. It also gave an inhibition at 20 µM (PRKCH (PKC eta)) of 104%, an inhibition at 20 µM (PIM1) of 95% and an inhibition at 20 µM (PRKCE (PKC epsilon)) of 99%. For the same molecule, the inhibition at 20 µM (SRC) was 27%, the “% Inhibition mean” value (SRC; TDZD-8 20 μM) was “little to no inhibition” and the inhibition at 20 µM (PHKG2) was 80%. For the same molecule, the inhibition (Jak2) was “little to no inhibition”, the inhibition at 20 µM (PRKCA (PKC alpha)) was 102% and the inhibition at 20 µM (STK6 (Aurora A)) was 99%. For the same molecule, the inhibition at 20 µM (IGF1R) was -2%, the inhibition at 20 µM (IRAK4) was 8% and the inhibition at 20 µM (EPHA2) was 3%. It also gave an inhibition at 20 µM (MAPK3 (ERK1)) of 61%, an inhibition at 20 µM (PRKACA (PKA)) of 18% and an inhibition at 20 µM (SYK) of 99%. It also gave an inhibition at 20 µM (MET (cMet)) of 90%, an inhibition at 20 µM (JAK3) of -1% and an inhibition at 20 µM (ROCK1) of 113%. For the same molecule, the inhibition at 20 µM (PDGFRB (PDGFR beta)) was -4%, the “% Inhibition mean” value (PDGFRB (PDGFR beta); TDZD-8 20 μM) was “little to no inhibition” and the inhibition at 20 µM (ERBB2 (HER2)) was 12%. For the same molecule, the inhibition at 20 µM (PRKCQ (PKC theta)) was 101%, the inhibition at 20 µM (TEK (Tie2)) was 9% and the “% Inhibition mean” value (TEK (Tie2); TDZD-8 20 μM) was “little to no inhibition”. The inhibition at 20 µM (LCK) was -9%, the inhibition at 20 µM (MAPK14 (p38 alpha)) was 97% and the inhibition at 20 µM (DYRK3) was 85%. The inhibition at 20 µM (RET) was 34%, the inhibition at 20 µM (PRKCZ (PKC zeta)) was 100% and the inhibition at 20 µM (FGFR1) was 1%. For the same molecule, the inhibition at 20 µM (CDK1/cyclin B) was 15% and the inhibition at 20 µM (CHEK1 (CHK1)) was 87%.
